Reference: US20240165129A1, “METHODS OF TREATING PAIN AND DEPRESSION” (priority 2022, published 2024)

tested on: primary cultured mouse cortical neurons; details: 10 μM, pH 6.0, n=8

Row | SMILES | protection against acid-induced neuronal injury (LDH release), analogs
1 | CC(C)CCC[C@@H](C)[C@H]1CC[C@H]2[C@@H]3C[C@@H]4O[C@@]45C[C@@H](O)CC[C@]5(C)[C@H]3CC[C@]12C [5α,6α-epoxy-Chol, 5α,6α-epoxycholesterol] | none of them shows significant protection
2 | C[C@@]12CCC[C@H]1[C@@H]1C[C@@H](O)[C@@]3(O)C[C@@H](O)CC[C@]3(C)[C@H]1CC2 [Andro-triol, 5α-androst-3β, 5, 6β-triol] | none of them shows significant protection
3 | CC(C)CCC[C@@H](C)[C@H]1CC[C@H]2[C@@H]3C[C@H]4O[C@]45C[C@@H](O)CC[C@]5(C)[C@H]3CC[C@]12C [5β,6β-epoxy-Chol, 5β,6β-epoxycholesterol] | none of them shows significant protection
